Ki and EC50 data for 28 compounds are collected here from patent publication US6914122B2 (priority 2000, dated 2005).

Molecules are shown by their SMILES. *1 amine or outer side, *2 acyl side, *3 side chain or, on linkers, in order; H or OH if unused. Where a SMILES comes first, the peptide text is derived from it. Bridges are numbered along the chain shown (N, C = ends). [ ]: non-standard residue; d: D form. The star is where a group is joined. ξ: configuration not given here. Phe(3-(CH2)7CO) = O=C([C@H](Cc1cccc(CCCCCCCC(=O)[*:3])c1)N[*:1])[*:2]; Azelaoyl = O=C(CCCCCCCC(=O)[*:2])[*:1]; Adipoyl = O=C(CCCCC(=O)[*:2])[*:1]; Glutaryl = O=C(CCCC(=O)[*:2])[*:1]; X1 = CCCC(N[*:1])C(=O)C(=O)[*:2]; Chg = N[C@H](C(=O)O)C1CCCCC1; Phg = N[C@H](C(=O)O)c1ccccc1; Suc = O=C(CCC(=O)[*:2])[*:1]; ξChg = NC(C(=O)O)C1CCCCC1; OtBu = CC(C)(C)O*

Experiment [1] deals with Recombinant heterodimeric HCV NS3/NS4A protease (strain 1a) (Hepatitis C virus genotype 1a, UniProt P27958). Description: biochemical. Further details: species or system HCV (strain 1a).
Experiment [2] deals with T1, HCV serine protease (subtype 1b, 1bNS4A21-32GS-GS NS 3-81 I17K) in HeLa/Huh7 cells (Hepatitis C virus genotype 1b, UniProt P26663, I1043K).
T1 construct: 1bNS4A21-32GS-GS NS 3-81 I17K; expressed in transfected cells; host or cells: HeLa/Huh7 cells
The experiment can be described thus: Cell bioassay: HCV serine protease cell-based trans-cleavage assay. Further details: species or system Hepatitis C virus (subtype 1b).

Take `CCCC(NC(=O)[C@H]1Cc2cccc(c2)Oc2ccc(cc2)CCC(=O)N[C@@H](C2CCCCC2)C(=O)O1)C(=O)C(=O)NCC(=O)N[C@H](C(=O)OC(C)(C)C)c1ccccc1` (stereo partly drawn) [Example 37]: in experiment [1], the inhibition constant (Ki) (as a rule, a dissociation constant, usually derived from enzyme kinetics or from competition with a known ligand) lay in the range of 1100 to 100000 nM. On the same count and under the same terms, the result for `CCCC(NC(=O)[C@@H]1CCCCNC(=O)CCC(=O)N[C@H](CCC(=O)O)C(=O)N[C@@H](C2CCCCC2)C(=O)N1)C(=O)C(=O)NCC(=O)N[C@H](C(N)=O)c1ccccc1` (stereo partly drawn) [Example 47] ([dE][Chg]K[X1]G[Phg]-NH2; linker N-3 via Suc) reads 1100 to 100000 nM.

In the case of `CCCC(NC(=O)[C@@H]1Cc2cccc(c2)Oc2ccc(cc2)CCC(=O)N[C@@H](C2CCCCC2)C(=O)O1)C(=O)C(=O)NCC(=O)N[C@H](C(=O)N(C)C)c1ccccc1` (stereo partly drawn) [Example 35], the Ki in experiment [1] fell in the range of 1100 to 100000 nM. Also, the EC50 – broadly, the concentration that produces a half-maximal response – in experiment [2] is 20000 nM. The matching figures for `CCCC(NC(=O)C1Cc2cccc(c2)OCCCCCCC(=O)NC(C2CCCCC2)C(=O)O1)C(=O)C(=O)NCC(=O)N[C@H](C(=O)N(C)C)c1ccccc1` (stereo partly drawn) [Example 36]: 1100 to 100000 nM and 9000 nM. As for `CCCC(NC(=O)[C@H]1Cc2cccc(c2)Oc2ccc(cc2)CCC(=O)N[C@@H](C2CCCCC2)C(=O)O1)C(=O)C(=O)NCC(=O)N[C@H](C(=O)O)c1ccccc1` (stereo partly drawn) [Example 38], in experiment [1], the Ki lay within 1100 to 100000 nM. On the same count and under the same terms, the result for `CCCC(NC(=O)C1Cc2cccc(c2)Oc2ccc(cc2)CCCCC(=O)NC(C2CCCCC2)C(=O)N1)C(=O)C(=O)NCC(=O)NC(C(=O)OC(C)(C)C)c1ccccc1` (stereo not drawn) [Example 7] reads 1100 to 100000 nM.

On to `CCCC(NC(=O)[C@@H]1Cc2cccc(c2)OCCCCCNC(=O)N[C@@H](C2CCCCC2)C(=O)N1)C(=O)C(=O)NCC(=O)N[C@H](C(=O)OC(C)(C)C)c1ccccc1` (stereo partly drawn) [Example 19], for which the Ki in experiment [1] lay in the range of 1100 to 100000 nM. The same measure, in the same setting: next, `CCCC(NC(=O)C1Cc2cccc(c2)Oc2ccc(cc2)CCC(=O)NC(C2CCCCC2)C(=O)O1)C(=O)C(=O)NCC(=O)NC(C(=O)O)c1ccccc1` (stereo not drawn) [Example 34]: 1100 to 100000 nM; `CCCC(NC(=O)[C@@H]1CCCCNC(=O)CCCCC(=O)N[C@@H](C2CCCCC2)C(=O)N1)C(=O)C(=O)NCC(=O)N[C@H](C(N)=O)c1ccccc1` (stereo partly drawn) [Example 52] ([Chg]K[X1]G[Phg]-NH2; linker N-2 via Adipoyl): 1 to 1000 nM. Same read-out and setting: the result for `CCCC(NC(=O)[C@@H]1CCCCNC(=O)CCCC(=O)N[C@H](CCC(=O)O)C(=O)N[C@@H](C2CCCCC2)C(=O)N1)C(=O)C(=O)NCC(=O)N[C@H](C(N)=O)c1ccccc1` (stereo partly drawn) [Example 48] ([dE][Chg]K[X1]G[Phg]-NH2; linker N-3 via Glutaryl) reads 1100 to 100000 nM. Same read-out and setting: the result for `CCCC(NC(=O)C1Cc2cccc(c2)Oc2ccc(cc2)CCC(=O)NC(C2CCCCC2)C(=O)N1)C(=O)C(=O)NCC(=O)O` (stereo not drawn) [Example 4] reads 1100 to 100000 nM.

Regarding `CCCC(NC(=O)[C@@H]1Cc2cccc(c2)OCCCCCC(=O)N[C@@H](C2CCCCC2)C(=O)N1)C(=O)C(=O)NCC(=O)N[C@H](C(=O)O)c1ccccc1` (stereo partly drawn) [Example 14], the Ki in experiment [1] fell in the range of 1100 to 100000 nM. The same measure, in the same setting: the result for `CCCC(NC(=O)[C@@H]1Cc2cccc(c2)OCCCCCCOC(=O)N[C@@H](C2CCCCC2)C(=O)N1)C(=O)C(=O)NCC(=O)N[C@H](C(=O)O)c1ccccc1` (stereo partly drawn) [Example 22] reads 1 to 1000 nM; that for `CCCC(NC(=O)[C@@H]1CCCCNC(=O)Cc2ccc(cc2)CC(=O)N[C@@H](C2CCCCC2)C(=O)N1)C(=O)C(=O)NCC(=O)N[C@H](C(N)=O)c1ccccc1` (stereo partly drawn) [Example 44], 1 to 1000 nM. The same measure, in the same setting: the result for `CCCC(NC(=O)[C@@H]1CCCCNC(=O)CCC(=O)N[C@H](CC(=O)O)C(=O)N[C@@H](C2CCCCC2)C(=O)N1)C(=O)C(=O)NCC(=O)N[C@H](C(N)=O)c1ccccc1` (stereo partly drawn) [Example 45] ([dD][Chg]K[X1]G[Phg]-NH2; linker N-3 via Suc) reads 1100 to 100000 nM; that for `CCCC(NC(=O)[C@@H]1Cc2cn(cn2)CCCCCCCC(=O)N[C@@H](C2CCCCC2)C(=O)N1)C(=O)C(=O)NCC(=O)N[C@H](C(=O)O)c1ccccc1` (stereo partly drawn) [Example 24], 1100 to 100000 nM. Take `CCCC(NC(=O)[C@@H]1Cc2cccc(c2)C=CCCCCCC(=O)N[C@@H](C2CCCCC2)C(=O)N1)C(=O)C(=O)NCC(=O)N[C@H](C(=O)O)c1ccccc1` (stereo partly drawn) [Example 16]: the inhibition constant (Ki) in experiment [1] lay in the range of 1 to 1000 nM. The same measure, in the same setting: next, `CCCC(NC(=O)[C@@H]1CCCCNC(=O)CCCC(=O)NC(C2CCCCC2)C(=O)N1)C(=O)C(=O)NCC(=O)N[C@H](C(N)=O)c1ccccc1` (stereo partly drawn) [Example 40] ([ξChg]K[X1]G[Phg]-NH2; linker N-2 via Glutaryl): 1100 to 100000 nM; `CCCC(NC(=O)[C@@H]1Cc2cccc(c2)Oc2ccc(cc2)CC(NC(C)=O)C(=O)N[C@@H](C2CCCCC2)C(=O)N1)C(=O)C(=O)NCC(=O)O` (stereo partly drawn) [Example 32]: 1100 to 100000 nM. Still for that read-out and setting: next, `CCCC(NC(=O)[C@@H]1Cc2cccc(c2)CCCCCCCC(=O)N[C@@H](C2CCCCC2)C(=O)N1)C(=O)C(=O)NCC(=O)N[C@H](C(=O)OC(C)(C)C)c1ccccc1` (stereo partly drawn) [Example 17] ([Chg][Phe(3-(CH2)7CO)][X1]G[Phg]-OtBu; lactam N-2): 1100 to 100000 nM; `CCCC(NC(=O)[C@@H]1Cc2cccc(c2)CCCCCCCC(=O)N[C@@H](C2CCCCC2)C(=O)N1)C(=O)C(=O)NCC(=O)N[C@H](C(=O)O)c1ccccc1` (stereo partly drawn) [Example 18] ([Chg][Phe(3-(CH2)7CO)][X1]G[Phg]-OH; lactam N-2): 1 to 1000 nM. The same measure, in the same setting: next, `CCCC(NC(=O)[C@@H]1CCCCNC(=O)CCCC(=O)N[C@H](CC(=O)O)C(=O)N[C@@H](C2CCCCC2)C(=O)N1)C(=O)C(=O)NCC(=O)N[C@H](C(N)=O)c1ccccc1` (stereo partly drawn) [Example 46] ([dD][Chg]K[X1]G[Phg]-NH2; linker N-3 via Glutaryl): 1100 to 100000 nM. `CCCC(NC(=O)C1Cc2cccc(c2)Oc2ccc(cc2)CC(NC(C)=O)C(=O)NC(C2CCCCC2)C(=O)N1)C(=O)C(=O)NCC(=O)NC(C(=O)OC(C)(C)C)c1ccccc1` (stereo not drawn) [Example 29]: the Ki in experiment [1] fell in the range of 1100 to 100000 nM.

In the case of `CCCC(NC(=O)[C@@H]1CCCCNC(=O)CCC(=O)NCC(=O)N[C@@H](C2CCCCC2)C(=O)N1)C(=O)C(=O)NCC(=O)N[C@H](C(N)=O)c1ccccc1` (stereo partly drawn) [Example 49] (G[Chg]K[X1]G[Phg]-NH2; linker N-3 via Suc), the Ki in experiment [1] lay within 1100 to 100000 nM.

Consider `CCCC(NC(=O)[C@@H]1CCCCNC(=O)CCCCCCCC(=O)N[C@@H](C2CCCCC2)C(=O)N1)C(=O)C(=O)NCC(=O)N[C@H](C(N)=O)c1ccccc1` (stereo partly drawn) [Example 42] ([Chg]K[X1]G[Phg]-NH2; linker N-2 via Azelaoyl), for which, in experiment [1], the Ki fell in the range of 1100 to 100000 nM.

`CCCC(NC(=O)C1Cc2cccc(c2)Oc2ccc(cc2)CCC(=O)NC(C2CCCCC2)C(=O)N1)C(=O)C(=O)NCC(=O)NC(C(=O)O)c1ccccc1` (stereo not drawn) [Example 2]: the Ki in experiment [1] lay within 1 to 1000 nM. On to `CCCC(NC(=O)C1Cc2cccc(c2)Oc2ccc(cc2)CCCCC(=O)NC(C2CCCCC2)C(=O)N1)C(=O)C(=O)NCC(=O)NC(C(=O)O)c1ccccc1` (stereo not drawn) [Example 8], for which, in experiment [1], the Ki lay within 1 to 1000 nM. On the same count and under the same terms, the result for `CCCC(NC(=O)[C@@H]1Cc2cccc(c2)OCCCCCNC(=O)N[C@@H](C2CCCCC2)C(=O)N1)C(=O)C(=O)NCC(=O)N[C@H](C(=O)O)c1ccccc1` (stereo partly drawn) [Example 20] reads 1 to 1000 nM.
